The results in this text go back to patent US6737409B2, “Dolastatin 10 derivatives” (Hoffmann-La Roche Inc., priority 2001, dated 2004).

In the assay the test system is HCT 116. The assay is described as follows: Antiproliferative activity assay (WST-8). The format is cell-based. Conditions: for pIC50: incubated 4 days, WST-8, concentration of drug yielding 50% OD of the control growth, read-out: HCT 116 IC50. The method, then: Antiproliferative activity assay was carried out as follows. A single suspension of tumor cells was inoculated to the serially diluted 96-well microtestplate. Then the testplate was incubated in the 5% CO2 ambience at 37° C. for 4 days (2-3×10^3 cells/well). The degree of cell growth in a monolayer was measured by using WST-8 (Dojindo, Japan). IC50 values of drugs against tumor cells were calculated as the concentration of drug yielding 50% OD of the control growth.

pIC50: −log10 of the molar value. Where two headings read alike, the source gives them in different places.

As usually defined, the pIC50 is −log10 of the IC50, conventionally taken in molar units. Consider `CCC(C)C(C(CC(=O)N1CCCC1C(CC(=O)N(C)CCc1ccccc1)SC)OC)N(C)C(=O)C(NC(=O)C(C(C)C)N(C)C)C(C)C` (centres unmarked) [N-{1-[(1-sec-Butyl-2-methoxy-4-{2-[2-(methyl-phenethyl-carbamoyl)-1-methylsulfanyl-ethyl]-pyrrolidin-1-yl}-4-oxo-butyl)-methyl-carbamoyl]-2-methyl-propyl}-2-dimethylamino-3-methyl-butyramide], for which the pIC50 (Homo sapiens, HCT-116, 96 h) is 9.06.

Regarding `CCC(C)C(C(CC(=O)N1CCCC1[C@@H](CC(=O)NCCc1ccccc1)SC(C)(C)C)OC)N(C)C(=O)C(NC(=O)C(C(C)C)N(C)C)C(C)C` (stereo partly drawn) [N-[1-({1-sec-Butyl-4-[2-(1-(R)-tert-butylsulfanyl-2-phenethylcarbamoyl-ethyl)-pyrrolidin-1-yl]-2-methoxy-4-oxo-butyl}-methyl-carbamoyl)-2-methyl-propyl]-2-dimethylamino-3-methyl-butyramide], the pIC50 (Homo sapiens, HCT-116, 96 h) was 10.40.

For `CCC(C)C(C(CC(=O)N1CCCC1C(CC(=O)NCCc1ccccc1O)SC)OC)N(C)C(=O)C(NC(=O)C(C(C)C)N(C)C)C(C)C` (centres unmarked) [N-(1-{[1-sec-Butyl-4-(2-{2-[2-(2-hydroxy-phenyl)-ethylcarbamoyl]-1-methylsulfanyl-ethyl}-pyrrolidin-1-yl)-2-methoxy-4-oxo-butyl]-methyl-carbamoyl}-2-methyl-propyl)-2-dimethylamino-3-methyl-butyramide], the pIC50 (Homo sapiens, HCT-116, 96 h) is 9.19.

Regarding `CCNC(=O)OCCSC(CC(=O)NCCc1ccccc1)C1CCCN1C(=O)CC(OC)C(C(C)CC)N(C)C(=O)C(NC(=O)C(C(C)C)N(C)C)C(C)C` (centres unmarked) [Ethyl-carbamic acid 2-{1-[1-(4-{[2-(2-dimethylamino-3-methyl-butyrylamino)-3-methyl-butyryl]-methyl-amino}-3-methoxy-5-methyl-heptanoyl)-pyrrolidin-2-yl]-2-phenethylcarbamoyl-ethylsulfanyl}-ethyl ester], the pIC50 (Homo sapiens, HCT-116, 96 h) is 9.01.

In the case of `CCC(C)C(C(CC(=O)N1CCCC1C(CC(=O)NCCc1cccnc1)SC)OC)N(C)C(=O)C(NC(=O)C(C(C)C)N(C)C)C(C)C` (centres unmarked) [N-{1-[(1-sec-Butyl-2-methoxy-4-{2-[1-methylsulfanyl-2-(2-pyridin-3-yl-ethylcarbamoyl)-ethyl]-pyrrolidin-1-yl}-4-oxo-butyl)-methyl-carbamoyl]-2-methyl-propyl}-2-dimethylamino-3-methyl-butyramide], the pIC50 (Homo sapiens, HCT-116, 96 h) was 9.04.

`CCC(C)C(C(CC(=O)N1CCCC1C(CC(=O)NCCc1ccc(OC)c(OC)c1)SC)OC)N(C)C(=O)C(NC(=O)C(C(C)C)N(C)C)C(C)C` (centres unmarked) [N-(1-{[1-sec-Butyl-4-(2-{2-[2-(3,4-dimethoxy-phenyl)-ethylcarbamoyl]-1-methylsulfanyl-ethyl}-pyrrolidin-1-yl)-2-methoxy-4-oxo-butyl]-methyl-carbamoyl}-2-methyl-propyl)-2-dimethylamino-3-methyl-butyramide]: the pIC50 (Homo sapiens, HCT-116, 96 h) is 9.04.

As to `CCC(C)C(C(CC(=O)N1CCCC1C(CC(=O)NCCc1cccs1)SC)OC)N(C)C(=O)C(NC(=O)C(C(C)C)N(C)C)C(C)C` (centres unmarked) [N-{1-[(1-sec-Butyl-2-methoxy-4-{2-[1-methylsulfanyl-2-(2-thiophen-2-yl-ethylcarbamoyl)-ethyl]-pyrrolidin-1-yl}-4-oxo-butyl)-methyl-carbamoyl]-2-methyl-propyl}-2-dimethylamino-3-methyl-butyramide], the pIC50 (Homo sapiens, HCT-116, 96 h) is 9.30.

Turning to `CCSC(CC(=O)NCCc1ccccc1)C1CCCN1C(=O)CC(OC)C(C(C)CC)N(C)C(=O)C(NC(=O)C(NC)C(C)C)C(C)C` (centres unmarked) [N-[1-({1-sec-Butyl-4-[2-(1-ethylsulfanyl-2-phenethylcarbamoyl-ethyl)-pyrrolidin-1-yl]-2-methoxy-4-oxo-butyl}-methyl-carbamoyl)-2-methyl-propyl]-3-methyl-2-methylamino-butyramide], for the setting “Homo sapiens, HCT-116, 96 h”, the pIC50 was 9.30.

Regarding `CCC(C)C(C(CC(=O)N1CCCC1C(CC(=O)NCCc1ccccc1)Sc1ccccc1)OC)N(C)C(=O)C(NC(=O)C(NC)C(C)C)C(C)C` (centres unmarked) [N-[-({1-sec-Butyl-2-methoxy-4-oxo-4-[2-(2-phenethylcarbamoyl-1-phenylsulfanyl-ethyl)-pyrrolidin-1-yl]-butyl}-methyl-carbamoyl)-2-methyl-propyl]-3-methyl-2-methylamino-butyramide], the pIC50 was 9.06.

Consider `CCC(C)C(C(CC(=O)N1CCCC1C(CC(=O)NCCc1cccc(O)c1)SCC(=O)N(C)C)OC)N(C)C(=O)C(NC(=O)C(C(C)C)N(C)C)C(C)C` (centres unmarked) [N-(1-{[1-sec-Butyl-4-(2-{1-dimethylcarbamoylmethylsulfanyl-2-[2-(3-hydroxy-phenyl)-ethylcarbamoyl]-ethyl}-pyrrolidin-1-yl)-2-methoxy-4-oxo-butyl]-methyl-carbamoyl}-2-methyl-propyl)-2-dimethylamino-3-methyl-butyramide], for which, for the setting “Homo sapiens, HCT-116, 96 h”, the pIC50 was 8.74.

For `CCC(C)C(C(CC(=O)N1CCCC1[C@@H](CC(=O)NCCc1ccccc1)Sc1ccc(O)cc1)OC)N(C)C(=O)C(NC(=O)C(C(C)C)N(C)C)C(C)C` (stereo partly drawn) [N-{1-[(1-sec-Butyl-4-{2-[1-(R)-(4-hydroxy-phenylsulfanyl)-2-phenethylcarbamoyl-ethyl]-pyrrolidin-1-yl}-2-methoxy-4-oxo-butyl)-methyl-carbamoyl]-2-methyl-propyl}-2-dimethylamino-3-methyl-butyramide], the negative logarithm of the IC50 (pIC50) (Homo sapiens, HCT-116, 96 h) is 9.22.

On to `CCC(C)C(C(CC(=O)N1CCCC1C(SC)C(C)C(=O)NCCc1ccccc1)OC)N(C)C(=O)C(NC(=O)C(NC)C(C)C)C(C)C` (centres unmarked) [N-[-({1-sec-Butyl-2-methoxy-4-[2-(1-methylsulfanyl-2-phenethylcarbamoyl-propyl)-pyrrolidin-1-yl]-4-oxo-butyl}-methyl-carbamoyl)-2-methyl-propyl]-2-methylamino-3 methyl-butyramide], for which the pIC50 was 9.00.

On to `CCC(C)C(C(CC(=O)N1CCCC1C(CC(=O)NCCc1ccc(O)cc1)SC)OC)N(C)C(=O)C(NC(=O)C(C(C)C)N(C)C)C(C)C` (centres unmarked) [N-(1-{[1-sec-Butyl-4-(2-{2-[2-(4-hydroxy-phenyl)-ethylcarbamoyl]-1-methylsulfanyl-ethyl}-pyrrolidin-1-yl)-2-methoxy-4-oxo-butyl]-methyl-carbamoyl}-2-methyl-propyl)-2-dimethylamino-3-methyl-butyramide], for which, under “Homo sapiens, HCT-116, 96 h”, the negative-log IC50 (pIC50) was 9.22.

For the compound `CCC(C)C(C(CC(=O)N1CCCC1C(SC)C(C)C(=O)NCCc1ccccc1)OC)N(C)C(=O)C(NC(=O)C(C(C)C)N(C)C)C(C)C` (centres unmarked) [N-[1-({1-sec-Butyl-2-methoxy-4-[2-(1-methylsulfanyl-2-phenethylcarbamoyl-propyl)-pyrrolidin-1-yl]-4-oxo-butyl}-methyl-carbamoyl)-2-methyl-propyl]-2-dimethylamino-3-methyl-butyramide], under “Homo sapiens, HCT-116, 96 h”, the pIC50 was 10.40.

For `CCC(C)C(C(CC(=O)N1CCCC1C(CC(=O)NCCc1ccccc1)SCCO)OC)N(C)C(=O)C(NC(=O)C(C(C)C)N(C)C)C(C)C` (centres unmarked) [N-{1-[(1-sec-Butyl-4-{2-[1-(2-hydroxy-ethylsulfanyl)-2-phenethylcarbamoyl-ethyl]-pyrrolidin-1-yl}-2-methoxy-4-oxo-butyl)-methyl-carbamoyl]-2-methyl-propyl}-2-dimethylamino-3-methyl-butyramide], the pIC50 (Homo sapiens, HCT-116, 96 h) is 9.41.

With `CCC(C)C(C(CC(=O)N1CCCC1C(CC(=O)NCCc1ccccc1)Sc1ccc(NC(C)=O)cc1)OC)N(C)C(=O)C(NC(=O)C(C(C)C)N(C)C)C(C)C` (centres unmarked) [N-{1-[(4-{2-[1-(4-Acetylamino-phenylsulfanyl)-2-phenethylcarbamoyl-ethyl]-pyrrolidin-1-yl}-1-sec-butyl-2-methoxy-4-oxo-butyl)-methyl-carbamoyl]-2-methyl-propyl}-2-dimethylamino-3-methyl-butyramide], the pIC50 (Homo sapiens, HCT-116, 96 h) is 9.01.

For `CCC(C)C(C(CC(=O)N1CCCC1C(CC(=O)NCCc1cccc(O)c1)SC)OC)N(C)C(=O)C(NC(=O)C(C(C)C)N(C)C)C(C)C` (centres unmarked) [N-(1-{[1-sec-Butyl-4-(2-{2-[2-(3-hydroxy-phenyl)-ethylcarbamoyl]-1-methylsulfanyl-ethyl}-pyrrolidin-1-yl)-2-methoxy-4-oxo-butyl]-methyl-carbamoyl}-2-methyl-propyl)-2-dimethylamino-3-methyl-butyramide], the pIC50 (Homo sapiens, HCT-116, 96 h) is 9.59.

`CCC(C)C(C(CC(=O)N1CCCC1C(CC(=O)NCCc1ccccc1)S(C)(=O)=O)OC)N(C)C(=O)C(NC(=O)C(C(C)C)N(C)C)C(C)C` (centres unmarked) [N-[1-({1-sec-Butyl-4-[2-(1-methanesulfonyl-2-phenethylcarbamoyl-ethyl)-pyrrolidin-1-yl]-2-methoxy-4-oxo-butyl}-methyl-carbamoyl)-2-methyl-propyl]-2-dimethylamino-3-methyl-butyramide]: where the note is “Homo sapiens, HCT-116, 96 h”, the pIC50 is 9.36.

The IC50 is the concentration needed to halve the response being measured. As for `CCNC(=O)Oc1cccc(CCNC(=O)C(C)C(SC)C2CCCN2C(=O)CC(OC)C(C(C)CC)N(C)C(=O)C(NC(=O)C(C(C)C)N(C)C)C(C)C)c1` (centres unmarked) [Ethyl-carbamic acid 3-(2-{3-[1-(4-{[2-(2-dimethylamino-3-methyl-butyrylamino)-3-methyl-butyryl]-methyl-amino}-3-methoxy-5-methyl-heptanoyl)-pyrrolidin-2-yl]-2-methyl-3-methylsulfanyl-propionylamino}-ethyl)-phenyl ester], the IC50 (Homo sapiens, HCT-116, 96 h, read-out: HCT 116 IC50 (nM)) is 0.57 nM.

With `CCSC(CC(=O)NCCc1ccccc1)C1CCCN1C(=O)CC(OC)C(C(C)CC)N(C)C(=O)C(NC(=O)C(C(C)C)N(C)C)C(C)C` (centres unmarked) [N-[1-({1-sec-Butyl-4-[2-(1-ethylsulfanyl-2-phenethylcarbamoyl-ethyl)-pyrrolidin-1-yl]-2-methoxy-4-oxo-butyl}-methyl-carbamoyl)-2-methyl-propyl]-2-dimethylamino-3-methyl-butyramide], for the setting “Homo sapiens, HCT-116, 96 h”, the negative-log IC50 (pIC50) is 9.11.
